Activity calls are given as the source filed them. The rule behind the calls is not given here.
Assays:
Homo sapiens [1] = species: Homo sapiens; experiment: Effect on P-gp ATPase activity in human K562/A02 cell membranes assessed as remaining ATP level by measuring relative light units at 200 uM in presence of MgATP measured after 40 mins by luminescence based P-gp-Glo assay
[2] = Resistant factor, ratio of IC50 for P-gp overexpressing/drug resistant human K562/A02 cells to IC50 for human K562 cells; format: functional
K562/A02 [3] = experiment: Anti-proliferative activity against P-gp overexpressing/drug resistant human K562/A02 cells measured after 72 hrs by MTS assay; format: functional, cell-based; conditions: K562/A02, 72 h
[4] = Drug metabolism in P-gp overexpressing/drug resistant human K562/A02 cells assessed as nitric oxide production at 100 uM measured at 240 mins by Griess assay; format: ADME, cell-based; conditions: k562/a02, 4 h
K562 [5] = experiment: Anti-proliferative activity against human K562 cells measured after 72 hrs by MTS assay; format: functional, cell-based; conditions: K562, 72 h
K562/A02 [6] = experiment: Anti-proliferative activity against P-gp overexpressing/drug resistant human K562/A02 cells at 150 uM in presence of hemoglobin measured after 24 hrs by MTS assay; format: functional, cell-based
Homo sapiens [7] = species: Homo sapiens; experiment: Inhibition of P-gp in human K562/A02 cells assessed as increase in intracellular rhodamine123 accumulation at 0.33 to 10 uM measured after 1 hr by flow cytometry; format: cell-based
K562 [8] = experiment: Effect on rhodamine123 accumulation in human K562 cells at 0.33 to 10 uM measured after 1 hr by flow cytometry; format: functional, cell-based
K562/A02 [9] = experiment: Antitumor activity against P-gp overexpressing/drug resistant human K562/A02 cells xenografted in BALB/c nude mouse assessed as tumor growth inhibition at 4 mg/kg, iv administered every other day for 21 days measured post last dose relative to control; format: functional; conditions: 504 h, read-out: TGI
K562/A02 [10] = experiment: Antitumor activity against P-gp overexpressing/drug resistant human K562/A02 cells xenografted in BALB/c nude mouse assessed as reduction in tumor weight at 4 mg/kg, iv administered every other day for 21 days measured post last dose; format: functional, organism-based
[11] = Toxicity in BALB/c nude mouse administered via ip for every 3 days of four injections; conditions: in vivo
K562/A02 [12] = experiment: Antitumor activity against P-gp overexpressing/drug resistant human K562/A02 cells xenografted in BALB/c nude mouse assessed as reduction in tumor size at 4 mg/kg, iv administered every other day for 21 days measured post last dose; format: functional, organism-based
[13] = Permeability in human Caco2 cells assessed as concentration ratio of basolateral to apical side at 100 uM measured at 5 mins post dose by HPLC analysis; format: ADME, cell-based; conditions: caco-2, 5 min
[14] = Permeability in human Caco2 cells assessed as concentration ratio of basolateral to apical side at 100 uM measured at 10 mins post dose by HPLC analysis; format: ADME, cell-based; conditions: caco-2, 10 min

Molecule	Ratio IC50 [2]	IC50 (K562/A02 [3]) [nM]	IC50 (K562 [5]) [nM]	other results
SODIUM ORTHOVANAD	–	–	–	Activity (Homo sapiens [1]): 242000 RLU
COC(=O)c1cc(OC)c2c(c1-c1c(C(=O)OC3CCN(CC(=O)OCCOCCOc4no[n+]([O-])c4S(=O)(=O)c4ccccc4)CC3)cc(OC)c3c1OCO3)OCO2	1.4	890	640	Drug metabolism [4]: Metabolite_Detected
O=C(CN1CCC(OC(=O)c2ccccc2)CC1)OCCCCOc1nonc1S(=O)(=O)c1ccccc1	1.6	6650	4060	–
COC(=O)c1cc(OC)c2c(c1-c1c(C(=O)OCCN3CCN(CC(=O)OCCCCOc4no[n+]([O-])c4S(=O)(=O)c4ccccc4)CC3)cc(OC)c3c1OCO3)OCO2	2.3	1570	690	–
COC(=O)c1cc(OC)c2c(c1-c1c(C(=O)OCCN3CCN(CC(=O)NCCOc4no[n+]([O-])c4S(=O)(=O)c4ccccc4)CC3)cc(OC)c3c1OCO3)OCO2	5.5	3010	550	–
COC(=O)c1cc(OC)c2c(c1-c1c(C(=O)OC3CCN(CC(=O)OCCOc4no[n+]([O-])c4S(=O)(=O)c4ccccc4)CC3)cc(OC)c3c1OCO3)OCO2	1.3	650	510	–
COC(=O)c1cc(OC)c2c(c1-c1c(C(=O)OC3CCN(CC(=O)NCCOc4no[n+]([O-])c4S(=O)(=O)c4ccccc4)CC3)cc(OC)c3c1OCO3)OCO2	2.5	3160	1280	Drug metabolism [4]: Metabolite_Detected
COC(=O)c1cc(OC)c2c(c1-c1c(C(=O)O)cc(OC)c3c1OCO3)OCO2	0.9	125000	137000	Activity (K562/A02 [6]): inactive; Drug metabolism [4]: Metabolite_Notdetected
COc1ccc(CCN(C)CCCC(C#N)(c2ccc(OC)c(OC)c2)C(C)C)cc1OC (stereo not drawn)	–	–	–	inhibition (Homo sapiens [7]): Active; Activity (K562 [8]): inactive; Activity (Homo sapiens [1]): 179000 RLU
COC(=O)c1cc(OC)c2c(c1-c1c(C(=O)OC3CCN(CC(=O)OCCCOc4no[n+]([O-])c4S(=O)(=O)c4ccccc4)CC3)cc(OC)c3c1OCO3)OCO2	0.7	590	800	–
COC(=O)c1cc(OC)c2c(c1-c1c(C(=O)OC3CCN(CC(=O)OC(C)(C)CCOc4no[n+]([O-])c4S(=O)(=O)c4ccccc4)CC3)cc(OC)c3c1OCO3)OCO2	1.1	910	870	–
COC(=O)c1cc(OC)c2c(c1-c1c(C(=O)OC3CCN(CC(=O)OC(C)CCOc4no[n+]([O-])c4S(=O)(=O)c4ccccc4)CC3)cc(OC)c3c1OCO3)OCO2 (stereo not drawn)	1.9	760	390	–
COC(=O)c1cc(OC)c2c(c1-c1c(C(=O)OCCN3CCN(CC(=O)OC(C)CCOc4no[n+]([O-])c4S(=O)(=O)c4ccccc4)CC3)cc(OC)c3c1OCO3)OCO2 (stereo not drawn)	2.1	810	380	–
COC(=O)c1cc(OC)c2c(c1-c1c(C(=O)OCCN3CCN(CC(=O)OCCCOc4no[n+]([O-])c4S(=O)(=O)c4ccccc4)CC3)cc(OC)c3c1OCO3)OCO2	1.2	930	750	Drug metabolism [4]: Metabolite_Detected
COC(=O)c1cc(OC)c2c(c1-c1c(C(=O)OCCN3CCN(CC(=O)OC(C)(C)CCOc4no[n+]([O-])c4S(=O)(=O)c4ccccc4)CC3)cc(OC)c3c1OCO3)OCO2	1.8	1510	860	Drug metabolism [4]: Metabolite_Detected
COC(=O)c1cc(OC)c2c(c1-c1c(C(=O)OCCN3CCN(CC(=O)OCCOc4no[n+]([O-])c4S(=O)(=O)c4ccccc4)CC3)cc(OC)c3c1OCO3)OCO2	3.5	2010	580	–
COc1cccc2c1C(=O)c1c(O)c3c(c(O)c1C2=O)C[C@@](O)(C(=O)CO)C[C@@H]3O[C@H]1C[C@H](N)[C@H](O)[C@H](C)O1.Cl [DOXORUBICIN HYDROCHLORIDE]	41.5	24500	590	inhibition in vivo at 4 mg/kg (K562/A02 [9]): 18.6%; Activity (K562/A02 [10]): inactive; MTD at 72 h [11]: 4 mg/kg; Activity (K562/A02 [12]): inactive
COC(=O)c1cc(OC)c2c(c1-c1c(C(=O)OC)cc(OC)c3c1OCO3)OCO2 [BIFENDATE]	–	> 200000	> 200000	–
O=C(CN1CCC(O)CC1)OCCCCOc1no[n+]([O-])c1S(=O)(=O)c1ccccc1	1.8	4110	2250	Ratio [13]: 0.02; Ratio [14]: 0.03
COC(=O)c1cc(OC)c2c(c1-c1c(C(=O)OC3CCN(CC(=O)OCCCCOc4nonc4S(=O)(=O)c4ccccc4)CC3)cc(OC)c3c1OCO3)OCO2	1.1	73000	68000	Drug metabolism [4]: Metabolite_Notdetected
COC(=O)c1cc(OC)c2c(c1-c1c(C(=O)OCCN3CCN(CC(=O)OCCOCCOc4no[n+]([O-])c4S(=O)(=O)c4ccccc4)CC3)cc(OC)c3c1OCO3)OCO2	6.1	2300	380	–
